From patent US20230373952A1, “LACTAM COMPOUNDS AS Kv1.3 POTASSIUM SHAKER CHANNEL BLOCKERS” (D.E. Shaw Research, LLC, priority 2020, published 2023) come the findings set out here.

Each structure is given as a SMILES string. Where two headings read alike, the source gives them in different places.

For one experiment, the target named is hERG channel (Homo sapiens, UniProt Q12809). The experiment is described as follows: cell-based.
The target in another experiment is T1, Kv1.3 potassium channel (Homo sapiens, UniProt P22001).
T1 construct: expressed in transfected cells
The experiment is described as follows: Kv1.3 potassium channel blocker activity, automated whole-cell patch clamp (Patchliner). The class given is cell-based. Particulars: whole-cell current inhibition, Hill fit. As to the method: CHO-K1 cells stably expressing Kv1.3 were grown in DMEM containing 10% heat-inactivated FBS, 1 mM sodium pyruvate, 2 mM L-glutamine and G418 (500 μg/ml).
The currents were evoked by applying 100 ms depolarizing pulses from −90 mV (holding potential) to +40 mV were applied with 0.1 Hz frequency. […] 10-second breaks were used between pulse trains (see Table H below).
Passive leak currents were subtracted online using a P/4 procedure (HEKA Elektronik Dr. Schulze GmbH). […] Total compound incubation time before the next pulse train was not longer than 10 seconds. Peak current inhibition was observed during compound equilibration.

Where [1] appears, read: CHO-K1 cells stably expressing Kv1.3, read-out: Kv1.3 IC50.

T1 sequence (P22001 whole entry): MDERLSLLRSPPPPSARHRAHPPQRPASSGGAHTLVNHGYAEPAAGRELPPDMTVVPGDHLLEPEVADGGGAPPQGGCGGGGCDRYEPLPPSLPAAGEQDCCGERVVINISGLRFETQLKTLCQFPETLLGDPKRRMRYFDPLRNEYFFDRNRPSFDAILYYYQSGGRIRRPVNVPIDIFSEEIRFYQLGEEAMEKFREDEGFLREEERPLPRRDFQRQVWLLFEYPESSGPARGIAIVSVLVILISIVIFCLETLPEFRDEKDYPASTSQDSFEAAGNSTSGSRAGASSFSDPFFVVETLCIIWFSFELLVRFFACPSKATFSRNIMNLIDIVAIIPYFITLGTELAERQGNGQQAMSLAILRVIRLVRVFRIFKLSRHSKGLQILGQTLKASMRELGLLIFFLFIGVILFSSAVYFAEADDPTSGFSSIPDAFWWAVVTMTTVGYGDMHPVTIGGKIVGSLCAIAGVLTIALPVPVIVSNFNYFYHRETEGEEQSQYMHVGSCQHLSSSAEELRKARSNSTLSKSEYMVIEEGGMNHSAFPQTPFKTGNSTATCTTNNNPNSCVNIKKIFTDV
hERG channel, sequence (Q12809 whole entry): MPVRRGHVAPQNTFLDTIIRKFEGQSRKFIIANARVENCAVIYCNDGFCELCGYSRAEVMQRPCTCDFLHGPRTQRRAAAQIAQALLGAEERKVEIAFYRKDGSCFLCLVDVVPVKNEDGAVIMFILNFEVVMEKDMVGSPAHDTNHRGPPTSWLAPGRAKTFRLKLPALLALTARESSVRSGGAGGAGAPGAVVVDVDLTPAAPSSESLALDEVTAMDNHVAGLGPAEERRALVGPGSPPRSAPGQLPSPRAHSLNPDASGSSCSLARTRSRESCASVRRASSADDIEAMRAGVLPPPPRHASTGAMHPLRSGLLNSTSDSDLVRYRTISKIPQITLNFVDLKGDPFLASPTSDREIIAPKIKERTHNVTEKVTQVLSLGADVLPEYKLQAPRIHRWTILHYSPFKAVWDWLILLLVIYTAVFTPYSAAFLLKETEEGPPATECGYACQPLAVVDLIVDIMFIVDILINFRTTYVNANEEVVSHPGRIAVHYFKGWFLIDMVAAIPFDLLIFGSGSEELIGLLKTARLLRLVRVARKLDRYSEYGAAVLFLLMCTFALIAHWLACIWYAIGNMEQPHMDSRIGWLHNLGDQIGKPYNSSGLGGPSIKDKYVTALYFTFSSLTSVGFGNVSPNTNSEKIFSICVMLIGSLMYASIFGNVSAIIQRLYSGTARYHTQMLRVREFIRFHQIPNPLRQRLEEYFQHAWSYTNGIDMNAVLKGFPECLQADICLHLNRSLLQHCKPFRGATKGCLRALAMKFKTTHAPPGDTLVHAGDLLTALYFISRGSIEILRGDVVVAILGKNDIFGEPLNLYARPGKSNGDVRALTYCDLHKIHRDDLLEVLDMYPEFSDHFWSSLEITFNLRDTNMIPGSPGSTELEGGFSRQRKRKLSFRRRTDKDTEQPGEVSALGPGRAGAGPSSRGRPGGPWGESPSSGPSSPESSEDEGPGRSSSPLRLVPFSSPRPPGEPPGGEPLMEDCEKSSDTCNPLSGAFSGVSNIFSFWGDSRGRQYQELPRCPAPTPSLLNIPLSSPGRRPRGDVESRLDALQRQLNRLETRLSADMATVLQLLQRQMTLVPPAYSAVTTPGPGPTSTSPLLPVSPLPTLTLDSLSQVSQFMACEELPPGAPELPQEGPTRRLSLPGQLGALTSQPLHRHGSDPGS
Method for hERG channel: This assay is used to evaluate the disclosed compounds' inhibition activities against the hERG channel.
CHO-K1 cells stably expressing hERG were grown in Ham's F-12 Medium with glutamine containing 10% heat-inactivated FBS, 1% penicillin/streptomycin, hygromycin (100 μg/ml) and G418 (100 μg/ml). Cells were grown in culture flasks at 37° C. in a 5% CO2-humidified incubator.
All compounds were dissolved in DMSO at 30 mM. Compound stock solutions were freshly diluted with external solution to concentrations of 30 nM, 100 nM, 300 nM, 1 μM, 3 μM, 10 μM, 30 μM and 100 μM. The highest content of DMSO (0.3%) was present in 100 μM.
The voltage protocol (see Table I) was designed to simulate voltage changes during a cardiac action potential with a 300 ms depolarization to +20 mV (analogous to the plateau phase of the cardiac action potential), a repolarization for 300 ms to −50 mV (inducing a tail current) and a final step to the holding potential of −80 mV. The pulse frequency was 0.3 Hz. Control (compound-free) and compound pulse trains for each compound concentration applied contained 70 pulses.
Whole-cell current recordings and compound application were enabled by means of an automated patch clamp platform Patchliner (Nanion). EPC 10 patch clamp amplifier (HEKA) along with Patchmaster software (HEKA Elektronik Dr. Schulze GmbH) was used for data acquisition. Data were sampled at 10 kHz without filtering. Increasing compound concentrations were applied consecutively to the same cell without washouts in between.
AUC and PEAK values were obtained with Patchmaster (HEKA Elektronik Dr. Schulze GmbH). To determine IC50 the last single pulse in the pulse train corresponding to a given compound concentration was used. Obtained AUC and PEAK values in the presence of compound were normalized to control values in the absence of compound.

Consider `O=C1C[C@@H](c2c(O)ccc(Cl)c2Cl)CN1c1ccncc1` [Compound 64, (S)-4-(2,3-dichloro-6-hydroxyphenyl)-1-(pyridin-4-yl)pyrrolidin-2-one], for which the 50% inhibitory concentration (IC50) (usually the point on the concentration scale where inhibition reaches its midpoint) was > 10 µM on hERG channel and < 100 nM at Kv1.3 potassium channel (setting [1]).
In the case of `NC(=O)CCN1C[C@H](c2c(O)ccc(Cl)c2Cl)CC1=O` [Compound 40, (S)-3-(4-(2,3-dichloro-6-hydroxyphenyl)-2-oxopyrrolidin-1-yl)propanamide], the concentration for half-maximal inhibition (IC50) was > 100 µM against hERG channel and < 100 nM at Kv1.3 potassium channel (setting [1]).
The corresponding values for `NCCCN1C[C@H](c2c(O)ccc(Cl)c2Cl)CC1=O` [Compound 43, (4S)-1-(3-aminopropyl)-4-(2,3-dichloro-6-hydroxyphenyl)pyrrolidin-2-one] are > 30 µM and < 10 nM.
On the same counts, the results for `C[C@@H](O)CN1C[C@H](c2c(O)ccc(Cl)c2Cl)CC1=O` [Compound 53, (S)-4-(2,3-dichloro-6-hydroxyphenyl)-1-((R)-2-hydroxypropyl)pyrrolidin-2-one] are > 30 µM and < 100 nM.
With `COCCCN1C[C@H](c2c(O)ccc(Cl)c2Cl)CC1=O` [Compound 44, (S)-4-(2,3-dichloro-6-hydroxyphenyl)-1-(3-methoxypropyl)pyrrolidin-2-one], the values for the 50% inhibitory concentration (IC50) against hERG channel and at Kv1.3 potassium channel (setting [1]) were > 10 µM and < 100 nM, respectively.
The corresponding values for `Cn1cc(N2C[C@H](c3c(O)ccc(Cl)c3Cl)CC2=O)nn1` [Compound 65, (S)-4-(2,3-dichloro-6-hydroxyphenyl)-1-(1-methyl-1H-1,2,3-triazol-4-yl)pyrrolidin-2-one] are > 10 µM and < 1000 nM.
As to `Cn1cnc(N2C[C@H](c3c(O)ccc(Cl)c3Cl)CC2=O)n1` [Compound 66, (S)-4-(2,3-dichloro-6-hydroxyphenyl)-1-(1-methyl-1H-1,2,4-triazol-3-yl)pyrrolidin-2-one], the IC50 was > 100 µM on hERG channel and < 1000 nM on Kv1.3 potassium channel (setting [1]).
With `O=C1C[C@@H](c2c(O)ccc(Cl)c2Cl)CN1CC1(CO)CNC1` [Compound 46, (S)-4-(2,3-dichloro-6-hydroxyphenyl)-1-((3-(hydroxymethyl)azetidin-3-yl)methyl)pyrrolidin-2-one], the half-inhibitory concentration (IC50) was > 100 µM against hERG channel and < 100 nM at Kv1.3 potassium channel (setting [1]).
With `O=C1C[C@@H](c2c(O)ccc(Cl)c2Cl)CN1[C@@H]1CCNC1` (single isomer, unassigned) [Compound 14, 4-(2,3-dichloro-6-hydroxyphenyl)-[1,3-bipyrrolidin]-2-one], the half-maximal inhibitory concentration (IC50) on hERG channel was > 30 µM; on Kv1.3 potassium channel (setting [1]), < 1000 nM.
As to `O=C1C[C@@H](c2c(O)ccc(Cl)c2Cl)CN1C[C@H]1C[C@@H](O)C1` (single isomer, unassigned; isomer 2) [Compound 32], the IC50 at hERG channel was > 30 µM; on Kv1.3 potassium channel (setting [1]) it was < 100 nM.
On the same counts, the results for `O=C1C[C@@H](c2c(O)ccc(Cl)c2Cl)CN1CC(CO)CO` [Compound 42, (4S)-4-(2,3-dichloro-6-hydroxyphenyl)-1-[3-hydroxy-2-(hydroxymethyl)propyl]pyrrolidin-2-one] are > 30 µM and < 100 nM.
On the same counts, the results for `Cn1cc(N2CC(c3c(O)ccc(Cl)c3Cl)CC2=O)ccc1=O` (stereo not drawn) [Compound 57, 5-[4-(2,3-dichloro-6-hydroxyphenyl)-2-oxopyrrolidin-1-yl]-1-methylpyridin-2-one] are > 10 µM and < 100 nM.
As to `CC1[C@H](c2c(O)ccc(Cl)c2Cl)CC(=O)N1C[C@H](O)CO` (stereo in doubt) [Compound 79, (4S,5S)-4-(2,3-dichloro-6-hydroxyphenyl)-1-[(2S)-2,3-dihydroxypropyl]-5-methylpyrrolidin-2-one], the results for the IC50 against hERG channel and on Kv1.3 potassium channel (setting [1]) were > 30 µM and < 100 nM, respectively.
With `C[C@@H]1C(=O)N(C2CNC2)C[C@@H]1c1c(O)ccc(Cl)c1Cl` (single isomer, unassigned; isomer 4) [Compound 90, 1-(azetidin-3-yl)-4-(2,3-dichloro-6-hydroxyphenyl)-3-methylpyrrolidin-2-one isomer 4], the IC50 is > 100 µM against hERG channel and < 1000 nM at Kv1.3 potassium channel (setting [1]).
As for `O=C1C[C@@H](c2c(O)ccc(Cl)c2Cl)CN1C[C@H]1C[C@H](O)C1` (single isomer, unassigned; isomer 1) [Compound 31], the figures for the IC50 at hERG channel and at Kv1.3 potassium channel (setting [1]) were > 30 µM and < 100 nM, respectively.
The corresponding values for `O=C1C[C@@H](c2c(O)ccc(Cl)c2Cl)CN1c1cn[nH]c1` [Compound 58, (S)-4-(2,3-dichloro-6-hydroxyphenyl)-1-(1H-pyrazol-4-yl)pyrrolidin-2-one] are > 30 µM and < 100 nM.
On the same counts, the results for `NCCN1C[C@H](c2c(O)ccc(Cl)c2Cl)CC1=O` [Compound 21, (4S)-1-(2-aminoethyl)-4-(2,3-dichloro-6-hydroxyphenyl)pyrrolidin-2-one] are > 100 µM and < 100 nM.
With `Nc1ccc(N2C[C@H](c3c(O)ccc(Cl)c3Cl)CC2=O)cn1` [Compound 61, (S)-1-(6-aminopyridin-3-yl)-4-(2,3-dichloro-6-hydroxyphenyl)pyrrolidin-2-one], the figures for the IC50 against hERG channel and at Kv1.3 potassium channel (setting [1]) were > 10 µM and < 100 nM, respectively.
Take `O=C1C[C@@H](c2c(O)ccc(Cl)c2Cl)CN1[C@H]1C[C@@H](CO)C1` (single isomer, unassigned; isomer 2) [Compound 26]: the IC50 on hERG channel was > 30 µM; on Kv1.3 potassium channel (setting [1]), < 100 nM.
On to `O=C1C[C@@H](c2c(O)ccc(Cl)c2Cl)CN1CCO` [Compound 29, (4S)-4-(2,3-dichloro-6-hydroxyphenyl)-1-(2-hydroxyethyl)pyrrolidin-2-one], for which the 50% inhibitory concentration (IC50) was > 30 µM on hERG channel and < 100 nM at Kv1.3 potassium channel (setting [1]).
The corresponding values for `O=C1CC[C@@H](c2c(O)ccc(Cl)c2Cl)CN1[C@@H]1CCNC1` (single isomer, unassigned) [Compound 5, 5-(2,3-dichloro-6-hydroxyphenyl)-1-[pyrrolidin-3-yl]piperidin-2-one] are > 30 µM and < 100 nM.
The corresponding values for `C[C@H]1[C@H](c2c(O)ccc(Cl)c2Cl)NC(=O)N1CCCO` (relative stereo) [Compound 101, (4S,5S)-rel-4-(2,3-dichloro-6-hydroxyphenyl)-1-(3-hydroxypropyl)-5-methylimidazolidin-2-one] are > 30 µM and < 100 nM.
With `NC(=O)CN1C[C@H](c2c(O)ccc(Cl)c2Cl)CC1=O` [Compound 34, 2-[(4S)-4-(2,3-dichloro-6-hydroxyphenyl)-2-oxopyrrolidin-1-yl]acetamide], the IC50 is > 100 µM on hERG channel and < 100 nM against Kv1.3 potassium channel (Kv1.3 IC50, CHO-K1 cells stably expressing Kv1.3).
Consider `O=C1C[C@@H](c2c(O)ccc(Cl)c2Cl)CN1CC1CNC1` [Compound 20, (4S)-1-(azetidin-3-ylmethyl)-4-(2,3-dichloro-6-hydroxyphenyl)pyrrolidin-2-one], for which the half-maximal inhibitory concentration (IC50) against hERG channel was > 100 µM; on Kv1.3 potassium channel (setting [1]) it was < 100 nM.
As to `O=C1N[C@@H](c2c(O)ccc(Cl)c2Cl)CN1CCCO` [Compound 104, (4S)-4-(2,3-dichloro-6-hydroxyphenyl)-1-(3-hydroxypropyl)imidazolidin-2-one], the concentration for half-maximal inhibition (IC50) is > 100 µM on hERG channel and < 100 nM at Kv1.3 potassium channel (setting [1]).
The corresponding values for `O=C1C[C@@H](c2c(O)ccc(Cl)c2Cl)CN1[C@H]1C[C@@](O)(CO)C1` (single isomer, unassigned; isomer 3) [Compound 70] are > 100 µM and < 100 nM.
The corresponding values for `Cn1ccc(N2C[C@H](c3c(O)ccc(Cl)c3Cl)CC2=O)cc1=O` [Compound 68, (S)-4-(4-(2,3-dichloro-6-hydroxyphenyl)-2-oxopyrrolidin-1-yl)-1-methylpyridin-2(1H)-one] are > 100 µM and < 1000 nM.
The corresponding values for `O=C1C[C@@H](c2c(O)ccc(Cl)c2Cl)CN1C1CNC1` [Compound 19, (4S)-1-(azetidin-3-yl)-4-(2,3-dichloro-6-hydroxyphenyl)pyrrolidin-2-one] are > 100 µM and < 100 nM.
In the case of `O=C1N[C@@H](c2c(O)ccc(Cl)c2Cl)CCN1[C@@H]1CCNC1` (single isomer, unassigned) [Compound 9, 4-(2,3-dichloro-6-hydroxyphenyl)-1-[pyrrolidin-3-yl]-tetrahydropyrimidin-2(1H)-one], the figures for the concentration for half-maximal inhibition (IC50) on hERG channel and at Kv1.3 potassium channel (setting [1]) were > 10 µM and < 1000 nM, respectively.
In the case of `N[C@@H]1C(=O)N(CCO)C[C@@H]1c1c(O)ccc(Cl)c1Cl` [Compound 105], the IC50 at hERG channel was > 100 µM; on Kv1.3 potassium channel (setting [1]), < 1000 nM.
In the case of `O=C1C[C@H](c2c(O)ccc(Cl)c2Cl)CN1[C@H]1CCNC1` (single isomer, unassigned) [Compound 15, 4-(2,3-dichloro-6-hydroxyphenyl)-[1,3-bipyrrolidin]-2-one], the results for the IC50 at hERG channel and on Kv1.3 potassium channel (setting [1]) were > 30 µM and < 100 nM, respectively.
As for `Cn1cc(N2C[C@H](c3c(O)ccc(Cl)c3Cl)CC2=O)cn1` [Compound 56, (4S)-4-(2,3-dichloro-6-hydroxyphenyl)-1-(1-methylpyrazol-4-yl)pyrrolidin-2-one], the figures for the IC50 against hERG channel and at Kv1.3 potassium channel (setting [1]) were > 100 µM and < 100 nM, respectively.
The corresponding values for `N[C@H]1C(=O)N(C2CNC2)C[C@@H]1c1c(O)ccc(Cl)c1Cl` [Compound 92, (3R,4S)-3-amino-1-(azetidin-3-yl)-4-(2,3-dichloro-6-hydroxyphenyl)pyrrolidin-2-one] are > 100 µM and < 1000 nM.
